# Experimental data reported in patent US4681877A, “Pivaloyloxymethyl 7-β-[2-(2-amino-4-thiazolyl)-2-methoxyiminoacetamido]-3-(2-amino-1, 3-thiadiazolyl-5-thiomethyl)-3-cepheme-4-carboxylate and pharmaceutical composition containing the same” (Kureha Kagaku Kogyo Kabushiki Kaisha, priority 1982, dated 1987).
# Read-outs that look alike come from different tables or passages of the source.
# Key:
# [1] = Stability to rat liver homogenate (S-9 mix): rate of maintaining the antibacterial activity; assay type: in vitro ADME; settings: for remaining at 20 min: rat
# Experimental: For verifying the stability of the compound represented by the formula (I), 7-beta-[2-(2-amino-4-thiazolyl)-2-methoxyiminoacetamindo]-3-(-2-amino-1,3,4-thiadiazoyl-5-thiomethyl)-3-cepheme -4-carboxyulic acid in living body of the host, the following model experiment was carried out.
# (§1) As a metabolism-activating enzyme, a rat liver homogenate (S-9, manufactured by Oriental Yeast Co.) was used in the following composition(referred to as S-9 mix, hereinafter):
# (§2) After mixing 0.1 ml of a solution of the compound to be tested with 0.9 ml of S-9 mix or 0.9 ml of 0.1 M phosphoric acid buffer solution, the mixture was subjected to shaking culture for 20 min at 37° C. to prepare a test reaction solution for use in the following experiment.
# (§3) Staphylococcus aureus IAM 1011 was inoculated to Mueller-Hinton'culture medium and the inoculum was cultured for 18 hours at 37° C. and after adjusting the number of the bacterial cells to 10^8 /ml of the culture medium, 50 times by weight of the Mueller-Hinton agar culture medium were added to the cultured medium to prepare flat culture plates. After placing a penicillin-cup of 8 mm in diameter on each of the thus prepared flat culture plates, 0.1 ml of the above-mentioned test reaction solution was introduced into the penicillin cup, and after leaving the system for 2 hours at 4° C., the system was incubated for 18 hours at 37° C., and the diameter of the growth-inhibition circle around the cup on the culture plate was determined.
# By applying each of the thus determined diameters of the respective growth-inhibition circles on a diagram preliminarily prepared to indicate the relationship between the diameter of the growth-inhibition circle and the concentration of the compound in the culture medium before carrying out the culture, the concentration of the compound in the culture medium in the presence of S-9 mix was obtained(referred to as C2). […]
# E. coli W 3636 = assay: Minimum growth-inhibition concentration (MIC), E. coli W 3636; assay type: cell-based, Escherichia coli; settings: Mueller-Hinton agar, 18 to 24 hours at 37° C.
# Experimental: (§4) The minimum inhibiting concentration(MIC) of the compound represented by the formula(I) and the compound represented by the formula(V) was measured according to the standard method of Japan Society of Chemotherapy against each of the following bacterial species:
# (§5) Anti-bacterial activity of the compounds respectively produced in Examples 1, 2 and 3 was determined according to the standard method of Japanese Society of Chemotherapy as follows.
# (§6) Each of the following bacterial strains was inoculated in Mueller-Hinton's culture medium and cultured for 18 to 48 hours at 37° C. to obtain a standard bacterial liquid containing 10^6 cells/ml.
# (§7) Separately, agar plates were prepared by adding each of the solutions of each of the compounds respectively produced in Examples, 1, 2 and 3 at predetermined concentrations in amount of one ninth by weight to Mueller-Hinton's culture medium.
# E. coli IFO 12734 = assay: Minimum growth-inhibition concentration (MIC), E. coli IFO 12734; assay type: cell-based, Escherichia coli; settings: Mueller-Hinton agar, 18 to 24 hours at 37° C.
# Experimental: as §4, §5, §6, §7
# [2] = test system: Pseudomonas aeruginosa IAM 1514; assay: Minimum growth-inhibition concentration (MIC), Pseudomonas aeruginosa IAM 1514; assay type: cell-based; settings: Mueller-Hinton agar, 18 to 24 hours at 37° C.
# Experimental: as §4, §5, §6, §7
# [3] = Stability in blood of living body: serum concentration after injection; assay type: in vivo, male Wistar rats; settings: rat, iv, caudal vein, Wistar rats, read-out: Concentration in the serum specimen
# Experimental: A solution of sodium salt (the product in Example 2) of the compound represented by the formula(I) in an aqueous physiological solution was injected into each of 5 healthy male Wistar rats (body weight of about 180 g) after 6 to 7 weeks of birth from the caudal vein by one shot method. The same procedure was carried out by using a solution of the sodium salt in a 1/15 M phosphoric acid buffer of pH of 7.0. After 30 min, 2 hours and 4 hours of the injection, the blood of the rate was collected from the cut carotid artery of the rat, and the collected blood was subjected to centrifugation for 15 min at 3000 rpm to obtain the three kinds of serum specimens (collected after 30 min, 2 hours and 4 hours after the injection).
# Separately, flat culture plates were made by adding 0.05 % by weight of Escherichia coli IFO 12734 into Heart-infusion agar culture medium, and a penicillin cup of 8 mm in diameter was placed on the flat culture medium, and each of the serum specimen, each of the blood specimen, 1/15 M phosphoric acid buffer solution or a 50% acetone-phosphoric acid buffer solution was introduced into the cup. The thus prepared inoculant was left for 30 min to 1 hour at room temperature and incubated for a night at 37° C.
# Then, the diameter of the growth-inhibition circle around the penicillin cup on each flat culture plate was determined, and according to the preliminarily prepared graph showing the relationship between the diameter of the growth-inhibition circle and the concentration of the sodium salt in the serum specimen, the blood specimen, 1/15 M phosphoric acid buffer solution and 50% acetone-phosphoric acid buffer solution, the concentration of the sodium salt in the serum specimen was obtained as: […]
# [4] = test system: Proteus vulgaris IAM 1025; assay: Minimum growth-inhibition concentration (MIC), Proteus vulgaris IAM 1025; assay type: cell-based; settings: Mueller-Hinton agar, 18 to 24 hours at 37° C.
# Experimental: as §4, §5, §6, §7
# [5] = test system: Serratia marcescens IAM 1223; assay: Minimum growth-inhibition concentration (MIC), Serratia marcescens IAM 1223; assay type: cell-based; settings: Mueller-Hinton agar, 18 to 24 hours at 37° C.
# Experimental: as §4, §5, §6, §7
# [6] = test system: Staphylococcus aureus IAM 1011; assay: Minimum growth-inhibition concentration (MIC), Staphylococcus aureus IAM 1011; assay type: cell-based; settings: Mueller-Hinton agar, 18 to 24 hours at 37° C.
# Experimental: as §4, §5, §6, §7
# test bacterial species = assay: Anti-bacterial activity (MIC) in general, all test species; assay type: cell-based; settings: against the test bacterial species
# Experimental: as §4
# Escherichia coli IFO 12734
# Staphylococcus aureus IAM 1011
# Proteus vulgaris IAM 1025
# Pseudomonas aeruginosa IAM 1514 and
# Serratia marcescens IAM 1223
# Escherichia coli [7] = assay: Effect on the experimental infectious disease on mice; assay type: in vivo, Escherichia coli; ddY-strain SPF mice; settings: orally 100 mg/kg, ddY-strain SPF mice, 1.4×10^8 cells E. coli i.p.
# Experimental: To each of the two groups of ddY-strain SPF mice, 1.4×10^8 cells of Escherichia coli was intraperitoneously inoculated to be infected, and just after or after 4 hours of the inoculation, the compound represented by the formula (I) was orally administered at a dose rate of 100 mg/kg.
# Escherichia coli IFO = assay: Effects on infectious disease (mice infected with Escherichia coli IFO); assay type: in vivo; settings: orally 100 mg/kg just after and 4 hours after inoculation; 7 days
# Experimental: After inoculating a group consisting of 20 mice with Escherichia coli IFO intraperitoneously to be infected, the compound represented by the formula(V) was orally administered to the mice just after and after 4 hours of inoculation at a dose rate of 100 mg/kg body weight, and after 7 days of the administration, the effectiveness of the compound was judged by observing the death rate of each group of mice by the infection.
# In the same manner, after inoculating another group consisting of 20 mice with Escherichia coli IFO intraperitoneously to be infected, the compound represented by the formula(I) was orally administered thereto just after and after 4 hours of inoculation at the dose rate of 100 mg/kg body weight, and after 7 days of the administration, the effectiveness of the compound was judged by observing the rate of survival of the mice.
# ICR-JCL mice = assay: Acute mammalian toxicity (LD50, 7-day mortality); assay type: in vivo; settings: autopsy after 7 days, dead and live mice
# Experimental: (§8) Acute mammalian toxicity of the compound represented by the formula(I) and the compound represented by the formula(V) was investigated by orally or intraperitoneally administering a series of aqueous physiological saline solution containing each of the above-mentioned compounds to groups of ICR-JCL mice, and observing the toxic symptoms appearing on the mice including the mortality for 7 days. Then, from the cumulative mortality, LD50 values were calculated by Litchfield-Wilcoxon's graphical method.
# [8] = Acute mammalian toxicity (LD50, 7-day mortality); assay type: in vivo; settings: mouse, in vivo
# Experimental: as §8
# Lactobacillus bifidus = test system: Lactobacillus bifidus; set-up: species or system Lactobacillus bifidus; female ICR mice; settings: mouse, in vivo, po, 100 mg/kg
# Experimental: (§9) The above-mentioned pivaloyloxymethyl ester represented by the formula(V) was orally administered for two continued days at a daily dosage of 100 mg/kg body weight to each of five female ICR mice of a group after 6 weeks of birth. Each of the two fecal specimens respectively collected before and after one day of the administration was diluted with 100 times by weight of an anaerobic diluent(a phosphoric buffer solution) and was ground in a mortar, and 0.1 ml of the ground material was smeared on each of the following culture media for the following bacteria and the thus inoculated culture media were incubated under the following conditions. Thereafter, the number of the following bacteria was determined on each culture medium.
# Bacterioides sp. = test system: Bacterioides sp.; set-up: species or system Bacterioides sp.; female ICR mice; settings: mouse, in vivo, po, 100 mg/kg
# Experimental: as §9
# Pseudomonas aeruginosa = test system: Pseudomonas aeruginosa; set-up: species or system Pseudomonas aeruginosa; female ICR mice; settings: mouse, in vivo, po, 100 mg/kg
# Experimental: as §9
# Escherichia coli [9] = assay: Activity against Escherichia coli before and after metabolism by rat liver homogenate; assay type: cell-based
# Experimental: The same test as above was carried on the compound represented by the formula(V). The results obtained were compared to the results of the test (1) on the compound represented by the formula(I) according to the following criterion.
# Taking the diameter of the growth-inhibiting circle due to the compound represented by the formula(I) at the same concentration as 100, and the ratio of the diameter of the growth-inhibiting circle due to the compound represented by the fomula(V) to the diameter of the growth-inhibiting circle due to the compound represented by the formula(I) is represented by the percentages as follows, and the respective signs are attributed to the respective percentage.
# [10] = test system: Staphylococcus aureus IAM 1011; assay: Stability of the compound of formula (V): growth-inhibiting circle with/without S-9 mix; assay type: cell-based; settings: formula (I) = 100
# Experimental: as §1, §2, §3
# The same test as above was carried on the compound represented by the formula(V). […]
# Streptococcus sp. = test system: Streptococcus sp.; set-up: species or system Streptococcus sp.; female ICR mice; settings: mouse, in vivo, po, 100 mg/kg
# Experimental: as §9
# Escherichia coli [11] = assay: Number of bacterial cells in feces, E. coli; assay type: in vivo, Escherichia coli; female ICR mice; settings: after 2 days oral 100 mg/kg; before: 6.4
# Experimental: as §9
# Lactobacillus sp. = test system: Lactobacillus sp.; set-up: species or system Lactobacillus sp.; female ICR mice; settings: mouse, in vivo, po, 100 mg/kg
# Experimental: as §9
# [12] = ip, read-out: LD50 (intraperitoneous)
Compound,Minimum growth-inhibition concentration (MIC) on E. coli W 3636 (E. coli W 3636),Minimum growth-inhibition concentration (MIC) on E. coli IFO 12734 (E. coli IFO 12734),Minimum growth-inhibition concentration (MIC) on Pseudomonas aeruginosa IAM 1514 [2],Minimum growth-inhibition concentration (MIC) on Proteus vulgaris IAM 1025 [4],Minimum growth-inhibition concentration (MIC) on Serratia marcescens IAM 1223 [5],Minimum growth-inhibition concentration (MIC) on Staphylococcus aureus IAM 1011 [6],"Anti-bacterial activity (MIC), in words (test bacterial species)",Rate of survival (Escherichia coli IFO),Autopsy findings (ICR-JCL mice),"LD50 at 168 h [8, 12] [mg/kg]","LD50 at 168 h ([8]; po, read-out: LD50 (oral)) [mg/kg]",further results
"CO/N=C(\C(=O)N[C@@H]1C(=O)N2C(C(=O)O)=C(COC(C)=O)CS[C@H]12)c1csc(N)n1 [CEFOTAX ®, reference compound]",0.1,< 0.05,50,< 0.05,0.2,1.56,,,,,,remaining at 20 min ([1]; s9): 17%; concentration at 0.5 h ([3]; 30 min after injection): 7000 ng/mL; concentration at 2 h ([3]; 2 hours after injection): 2500 ng/mL; concentration at 4 h ([3]; 4 hours after injection): 400 ng/mL
"CON=C(C(=O)N[C@@H]1C(=O)N2C(C(=O)O)=C(CSc3nnc(N)s3)CS[C@H]12)c1csc(N)n1 [Example 1, 7-beta-[2-(2-amino-4-thiazolyl)-2-methoxyiminoacetamido]-3-(2-amino-1,3,4-thiadiazolyl-5-thiomethyl)-3-cepheme-4-carboxylic acid]",0.2,< 0.05,12.5,< 0.05,0.2,0.78,strong and broad anti-bacterial activity,over 55%,No noticeable information,> 10000,> 10000,"Stability to the action of rat liver homogenate, in words ([1]; S-9 mix): stable; remaining at 20 min ([1]; liver homogenate s-9 mix, S-9 mix, 20 min at 37° C., read-out: Rate of maintaining the antibacterial activity): 80%; Survival on the 7th day of infection (Escherichia coli [7]): more than 55%"
"CON=C(C(=O)N[C@@H]1C(=O)N2C(C(=O)OCOC(=O)C(C)(C)C)=C(CSc3nnc(N)s3)CS[C@H]12)c1csc(N)n1 [Example 3, pivaloyloxymethyl 7-beta-[2-(2-amino-4-thiazolyl) -2-methoxyiminoacetamido]-3-(2-amino-1,3,4,-thiadiazolyl-5-thiomethyl)-3-cepheme-4-carboxylate]",50,12.5,≥ 100,12.5,≥ 100,≥ 100,not so small to verify the anti-bacterial activity,over 60%,No noticeable information,> 10000,> 10000,"log10 value of the number of bacterial cells/g of feces, Lact. bifidus (Lactobacillus bifidus): 8.4 log10 of bacterial cells/g of; log10 value of the number of bacterial cells/g of feces, Bacterioides sp. (Bacterioides sp.): 8.2 log10 of bacterial cells/g of; log10 value of the number of bacterial cells/g of feces, Pse. aeruginosa (Pseudomonas aeruginosa): < 3.0 log10 of bacterial cells/g of; Activity against Escherichia coli, in words (Escherichia coli [9]; after metabolized by the rat liver homogenate): active; Activity to Escherichia coli, in words (Escherichia coli [9]; compound itself, without S-9 mix): inactive; Ratio of diameter of growth-inhibiting circle to that of formula (I), sign ([10]; added with S-9 mix): +++ (67 to 100); Ratio of diameter of growth-inhibiting circle to that of formula (I), sign ([10]; without addition of S-9 mix): ± (0 to 1); log10 value of the number of bacterial cells/g of feces, Streptococcus sp. (Streptococcus sp.): 7.0 log10 of bacterial cells/g of; log10 value of the number of bacterial cells/g of feces, E. coli (Escherichia coli [11]): 6.5 log10 of bacterial cells/g of; log10 value of the number of bacterial cells/g of feces, Lactobacillus sp. (Lactobacillus sp.): 8.9 log10 of bacterial cells/g of"
